This assay deals with Hylobius abietis. The assay can be described thus: Antifeedant activity against Hylobius abietis (pine weevil ) in compound pre-treated Scots pine twig at 50 mM measured after 24 hr by two-choice laboratory bioassay. Format: functional.

Molecules are shown by their SMILES.

In the case of `COC(=O)/C=C/c1ccc(OC)c(OC)c1`, the AFI was 36%.

Take `COC(=O)/C=C/c1ccc([N+](=O)[O-])cc1`: the AFI amounted to 32%.

In the case of `COc1ccccc1CCC(=O)O`, the AFI amounted to 12%.

As for `COC(=O)CCc1ccc(OC)c(Br)c1`, the AFI is on record as 68%.

For `COC(=O)CCc1ccccc1C`, the AFI worked out at 91%.

As to `COC(=O)CCc1cccc(OC)c1`, the AFI worked out at 95%.

In the case of `COC(=O)CCc1cccc(C)c1`, the AFI came to 90%.

On to `COC(=O)CCc1ccc(Cl)c(Cl)c1`, for which the AFI was determined as 98%.

For the compound `COC(=O)CCc1cc(OC)c(OC)c(OC)c1`, the AFI came to 26%.

For `COC(=O)CCc1cc(OC)cc(OC)c1`, the AFI stood at 89%.

Consider `COC(=O)CCc1ccc(OC)cc1`, for which the AFI was 96%.

On to `CCCCOc1ccc(CCC(=O)OC)cc1`, for which the AFI amounted to 70%.

As to `COC(=O)CCc1ccc(C(C)=O)cc1`, the AFI was 14%.

As to `COC(=O)CCc1ccc(C)cc1`, the AFI was 99%.

On to `COC(=O)CCc1ccc(C(F)(F)F)cc1`, for which the AFI was found to be 57%.

As for `COC(=O)CCc1ccc(F)cc1`, the AFI was 98%.

Regarding `COC(=O)CCc1ccc(N)cc1`, the AFI turned out to be 29%.

On to `COC(=O)CCc1ccc(N(C)C)cc1`, for which the AFI stood at 84%.

For `COc1ccc(CCC(=O)OC(C)C)cc1`, the AFI was 83%.

Take `Cc1ccccc1CCC(=O)O`: the AFI came to 47%.

`COC(=O)CCc1ccccc1OC`: the AFI turned out to be 97%.

As to `COC(=O)CCc1cccc(OC)c1OC`, the AFI is reported as 86%.

In the case of `COC(=O)CCc1ccc(C)cc1C`, the AFI is 100%.

For the compound `COC(=O)CCc1ccc(OC)c(OC)c1`, the AFI is reported as 35%.

Regarding `COC(=O)CCc1ccc(C(C)C)cc1`, the AFI stood at 94%.

For `COC(=O)CCc1ccc(Cl)cc1`, the AFI is listed as 100%.

Consider `COC(=O)CCc1ccc(Br)cc1`, for which the AFI is 97%.

On to `COC(=O)/C=C/c1cccc(OC)c1OC`, for which the AFI was found to be 99%.

In the case of `COC(=O)/C=C/c1ccc(OC)cc1OC`, the AFI is given as 96%.

Turning to `COC(=O)/C=C/c1cc(OC)cc(OC)c1`, the AFI worked out at 72%.

`COC(=O)/C=C/c1ccc(C)cc1`: the AFI is given as 76%.

With `COC(=O)/C=C/c1ccc(C(C)C)cc1`, the AFI worked out at 92%.

Take `COC(=O)/C=C/c1ccc(C(F)(F)F)cc1`: the AFI worked out at 62%.

Regarding `COC(=O)/C=C/c1ccc(N(C)C)cc1`, the AFI is on record as 49%.

For `COC(=O)c1cc(O)cc(OC)c1`, the AFI amounted to 54%.

With `CCSC(=O)c1cc(OC)cc(OC)c1`, the AFI is on record as 74%.

With `CCNC(=O)c1cc(OC)cc(OC)c1`, the AFI came to 86%.

For the compound `CCCCCCCCc1ccc(C(=O)OC)cc1`, the AFI amounted to 35%.

In the case of `CC/C=C/CCOC(=O)c1cc(OC)cc(OC)c1`, the AFI stood at 62%.

For `C=CCc1ccc(OC(=O)c2cc(OC)cc(OC)c2)c(OC)c1`, the AFI was found to be 17%.

On to `COc1cc(OC)cc(C(=O)OCCCc2ccc(OC)c(OC)c2)c1`, for which the AFI turned out to be 41%.

As for `COC(=O)c1cc(O)ccc1OC`, the AFI is -3%.

Consider `COc1cc(OC)cc(C(=O)OCC(F)(F)F)c1`, for which the AFI was 86%.

On to `COc1cccc(C(=O)O)c1O`, for which the AFI is reported as 22%.

In the case of `COc1ccc(O)c(C(=O)O)c1`, the AFI is given as 17%.

`COC(=O)C(C)Cc1ccccc1` (racemic): the AFI was 79%.

For the compound `CCOC(=O)CC(O)c1ccccc1` (racemic), the AFI was 36%.

On to `CCOC(=O)CC(O)c1ccccc1Br` (racemic), for which the AFI was 59%.

Turning to `COC(=O)C(Br)C(Br)c1ccccc1` (racemic), the AFI worked out at 50%.

For the compound `CCOC(=O)C(Br)C(Br)c1ccccc1` (racemic; form 1), the AFI worked out at 75%.

Consider `CCOC(=O)C(Br)C(Br)c1ccccc1` (racemic; form 2), for which the AFI was found to be 45%.

Consider `CC(=O)Oc1cc(C(=O)O)cc(OC(C)=O)c1OC(C)=O` [3,4,5-TRIACETOXYBENZOIC ACID], for which the AFI was determined as 14%.

As to `COc1cc(C(N)=O)cc(OC)c1OC` [3,4,5-TRIMETHOXYBENZAMIDE], the AFI was -2%.

With `O=C(O)c1cc(O)cc(O)c1` [3,5-DIHYDROXYBENZOIC ACID], the AFI is recorded as 41%.

Take `COc1cc(OC)cc(C(=O)O)c1` [3,5-DIMETHOXYBENZOIC ACID]: the AFI was -4%.

Consider `COC(=O)CCc1ccc(O)cc1` [4-HYDROXYHYDROCINNAMIC ACID METHYL ESTER], for which the AFI is on record as 21%.

In the case of `COc1ccc(C(=O)O)c(O)c1` [4-METHOXYSALICYLIC ACID], the AFI is reported as 24%.

As for `COC(=O)c1c(C)cc(O)c(C)c1O` [ATRARIC ACID], the AFI is listed as 31%.

For `CCCCOC(=O)/C=C/c1ccccc1` [BUTYL CINNAMATE], the AFI is 38%.

Take `COC(=O)CCc1ccc(O)c(OC)c1` [DIHYDROFERULIC ACID METHYL ESTER]: the AFI came to 54%.

Take `CCCCCCCCCCCCOC(=O)c1ccc(OC)c(OC)c1` [DODECYL 3,4-DIMETHOXYBENZOATE]: the AFI is 23%.

`CCOC(=O)CCc1ccccc1` [ETHYL 3-PHENYLPROPANOATE]: the AFI was 73%.

As to `CCOC(=O)/C=C/c1ccccc1` [ETHYL CINNAMATE], the AFI turned out to be 83%.

Turning to `COC(=O)c1cc(O)c(O)c(O)c1` [GALLIC ACID METHYL ESTER], the AFI amounted to 21%.

`COc1ccc(C(=O)OC(C)C)c(OC)c1` [ISOPROPYL 2,4-DIMETHOXYBENZOATE]: the AFI stood at 96%.

On to `CC(C)OC(=O)c1ccc(O)cc1` [ISOPROPYL 4-HYDROXYBENZOATE], for which the AFI amounted to 63%.

Regarding `CC(C)OC(=O)/C=C/c1ccccc1` [ISOPROPYL CINNAMATE], the AFI was 96%.

Consider `COC(=O)c1ccc(OC)c(O)c1` [ISOVANILLIC ACID METHYL ESTER], for which the AFI is 65%.

On to `COc1ccc(C(=O)O)cc1O` [ISOVANILLIC ACID], for which the AFI is reported as 51%.

Consider `COC(=O)c1ccc(OC)c(OC)c1OC` [METHYL 2,3,4-TRIMETHOXYBENZOATE], for which the AFI amounted to 54%.

`COC(=O)c1cccc(OC)c1OC` [METHYL 2,3-DIMETHOXYBENZOATE]: the AFI is 73%.

For the compound `COC(=O)c1c(OC)cc(OC)cc1OC` [METHYL 2,4,6-TRIMETHOXYBENZOATE], the AFI came out at 55%.

On to `COC(=O)c1ccc(O)cc1O` [METHYL 2,4-DIHYDROXYBENZOATE], for which the AFI worked out at 46%.

Take `COC(=O)c1ccc(OC)cc1OC` [METHYL 2,4-DIMETHOXYBENZOATE]: the AFI turned out to be 99%.

For the compound `COC(=O)c1cc(OC)ccc1OC` [METHYL 2,5-DIMETHOXYBENZOATE], the AFI worked out at 89%.

For `COC(=O)c1c(OC)cccc1OC` [METHYL 2,6-DIMETHOXYBENZOATE], the AFI came to 51%.

For `COC(=O)c1cccc(OC)c1O` [METHYL 2-HYDROXY-3-METHOXYBENZOATE], the AFI stood at 95%.

With `COC(=O)c1cc(OC)ccc1O` [METHYL 2-HYDROXY-5-METHOXYBENZOATE], the AFI came out at 74%.

For the compound `COC(=O)c1c(O)cccc1OC` [METHYL 2-HYDROXY-6-METHOXYBENZOATE], the AFI was 74%.

Take `COC(=O)c1ccccc1OC` [METHYL 2-METHOXYBENZOATE]: the AFI stood at 80%.

`COC(=O)c1ccc2c(c1)OCO2` [METHYL 3,4-METHYLENEDIOXYBENZOATE]: the AFI worked out at 57%.

As to `COC(=O)c1cc(Br)cc(Br)c1` [METHYL 3,5-DIBROMOBENZOATE], the AFI is on record as 50%.

Regarding `COC(=O)c1cc(O)cc(O)c1` [METHYL 3,5-DIHYDROXYBENZOATE], the AFI is 23%.

As to `COC(=O)c1cc(OC)cc(OC)c1` [METHYL 3,5-DIMETHOXYBENZOATE], the AFI stood at 95%.

With `COC(=O)c1cc(C)cc(C)c1` [METHYL 3,5-DIMETHYLBENZOATE], the AFI turned out to be 61%.

With `COC(=O)c1cc([N+](=O)[O-])cc([N+](=O)[O-])c1` [METHYL 3,5-DINITROBENZOATE], the AFI stood at 34%.

Regarding `COC(=O)c1ccc(OC)c(Cl)c1` [METHYL 3-CHLORO-4-METHOXYBENZOATE], the AFI amounted to 36%.

In the case of `COC(=O)c1cccc(O)c1OC` [METHYL 3-HYDROXY-2-METHOXYBENZOATE], the AFI is recorded as 75%.

As for `COC(=O)c1cccc(OC)c1` [METHYL 3-METHOXYBENZOATE], the AFI is on record as 89%.

`COC(=O)CCc1ccccc1` [METHYL 3-PHENYLPROPANOATE]: the AFI amounted to 44%.

Consider `COC(=O)c1ccc(O)cc1OC` [METHYL 4-HYDROXY-2-METHOXYBENZOATE], for which the AFI is given as 35%.

As to `COC(=O)c1ccc(OC)cc1` [METHYL 4-METHOXYBENZOATE], the AFI is recorded as 54%.

With `COC(=O)c1ccc(O)c(O)c1` [METHYL PROTOCATECHUATE], the AFI is reported as -7%.

Regarding `COC(=O)c1ccc(O)c(OC)c1` [METHYL VANILLATE], the AFI was 53%.

With `COC(=O)c1ccc(O)cc1` [METHYLPARABEN], the AFI was found to be 34%.

Consider `O=C(O)c1ccc(O)cc1` [PARABEN], for which the AFI amounted to 31%.

For `O=C(O)c1ccc2c(c1)OCO2` [PIPERONYLIC ACID], the AFI came to 14%.

On to `CCCOC(=O)/C=C/c1ccccc1` [PROPYL CINNAMATE], for which the AFI is on record as 85%.

For `O=C(O)c1ccccc1O` [SALICYLIC ACID], the AFI came out at 21%.

On to `CCC(C)OC(=O)/C=C/c1ccccc1` (stereo not drawn) [SEC-BUTYL CINNAMATE], for which the AFI was determined as 48%.

With `COc1cc(C(=O)O)cc(OC)c1O` [SYRINGIC ACID], the AFI stood at 8%.

For the compound `COc1cc(C(=O)O)ccc1O` [VANILLIC ACID], the AFI was found to be 48%.

Take `COc1ccc(C(=O)O)cc1OC` [VERATRIC ACID]: the AFI amounted to 7%.

The values are drawn from ChEMBL document CHEMBL3044729, “Quantitative structure-activity relationships of pine weevil antifeedants, a multivariate approach” (2007).
